These are literature values, as cited in US20160114057A1, “MODULAR PROTEIN DRUG CONJUGATE THERAPEUTIC” (ZYMEWORKS INC., priority 2013, published 2016).

Like-named read-outs stand apart in the source and are kept apart here. Where a SMILES comes first, the peptide text is derived from it. [ ]: non-standard residue; d: D form. Aoe = N[C@@H](CCCCCC(=O)[C@@H]1CO1)C(=O)O; Aib = CC(C)(N)C(=O)O

In data set [1] the test system is various tumor cell lines.
The test system of data set [2] is A431 (EC).
Data set [3] deals with P388.
Data set [4] concerns K562 (CML).
Data set [5] has as its system MKN28 (GI).
Data set [6] deals with tumors in animal models. To be noted: tumor types as in Table 1.
Data set [7] concerns U-937 (lymphoma).
Data set [8] concerns A549 (lung).
Data set [9] deals with SK-OV-3 (ovary).
For data set [10], the system named is A-549 (epidermoid carcinoma).
For data set [11], the system named is A-498 (kidney).
The subject of data set [12] is MEL-28. As to conditions: cell culture.
The test system of data set [13] is HT-29 (colon). As to conditions: cell culture.
Data set [14] relates to lung.
Data set [15] relates to colon.
Assay in data set [16]: not given
This is another data set of the same source.

The conditions of data set [17]: human.
In data set [18] the test system is NCI tumor panel (60 cell line). As to conditions: NCI tumor panel; range over cell lines.
Assay in data set [19]: not given
This is another data set of the same source.

Data set [20] deals with HL-60.
Data set [21] concerns KB. As to conditions: KB.
Data set [22] relates to A2780.
Data set [23] relates to CD33+ cells (HL-60, NOMO-1, and NKM-1). To be noted: at 100 ng/mL.
Data set [24] has as its system MCF-7 (breast).
For data set [25], the system named is MCF-7/ADR.
In data set [26] the test system is HCT-116.
For data set [27] the following is noted: KB-31 (melanoma).
The conditions of data set [28]: human, in vivo.
In data set [29] the test system is colon 26.
The subject of data set [30] is MKM-45.
The test system of data set [31] is DLD-1.
Data set [32] relates to PC-13.
The conditions of data set [33]: i.p. in mice.
The target of data set [34] is histone deacetylase. As to conditions: inhibits histone deacetylase.

As for `COc1c(O)c2c(c3cc(C(=O)N4CCc5c4c(O)c(OC)c4[nH]c(C(=O)N6CC7CC78C6=CC(=O)c6[nH]cc(C)c68)cc54)[nH]c13)CCN2C(C)=O` (stereo not drawn) [Gilvusmycin], the IC50 in [1] (P388, K562, A431, MKN28, read-out: IC50 (for all)) is under 1 nM; in data set [2], 0.72 A431 (EC) ng/mL; in [3] it was 0.08 P388 ng/mL; in [4] it was 0.86 K562 (CML) ng/mL; in data set [5], 0.75 MKN28 (GI); ng/mL.
Consider `C=CCNC1=C2C[C@@H](C)C[C@H](OC)[C@H](O)[C@@H](C)/C=C(\C)[C@H](OC(N)=O)[C@@H](OC)/C=C\C=C(/C)C(=O)NC(=CC1=O)C2=O` [Variant 17-AAG], for which the “activity in animal models (in words)” value in [6] was “models active”. The t1/2 (i.v.) is about 1.5 h.
In the case of `C/C1=C\C(C)C(C)OC(=O)CC(c2ccc(O)cc2)NC(=O)C(Cc2c(Cl)[nH]c3ccccc23)N(C)C(=O)C(C)NC(=O)C(C)C1` (stereo not drawn) [Chondramide D], the IC50 in data set [7] was 3 nM; in data set [8] (A549 (lung), read-out: Activity (IC50)), 14 nM; in data set [9] it was 5 nM; in [10], 5 nM; in data set [11] it was 15 nM.
As for `C=CC(C)(C)OC[C@H]1NC(=O)[C@H]([C@@H](C)OC(C)(C)C=C)NC(=O)C2CSC(N2)[C@@H](Cc2ccccc2)NC(=O)[C@@H]2CCCN2C(=O)C(C)NC(=O)[C@H]([C@@H](C)CC)NC1=O` (stereo partly drawn) [Trunkamide A], the IC50 in data set [8] (cell culture, A549) is 0.5 A549; micrograms/mL; in data set [12], 1.0 MEL-28 micrograms/mL; in data set [3] (cell culture) it was 0.5 P388; micrograms/mL; in [13], 0.5 HT-29; micrograms/mL.
As to `CC[C@@H]1/C=C/C=C/C[C@H](C)[C@@H](O)[C@](C)(O)C(=O)[C@H](C)[C@@H](O)[C@H](C)C(=O)[C@H](C)[C@@H](O)[C@H](C)/C=C/C(=O)O[C@H]2[C@@H](C)[C@@H](CC1)O[C@@]1(CC[C@@H](C)[C@@H](C[C@H](C)O)O1)[C@@H]2CC` [NK-1301129], the “Activity (IC50)” value was 8.5 ng/mL lung in data set [14] and 25 ng/mL colon in [15].
`C/C=C1\NC(=O)[C@H]2CSSCC/C=C/[C@H](CC(=O)N[C@H](C(C)C)C(=O)N2)OC(=O)[C@H](C(C)C)NC1=O` [FR-901228]: under “human”, the t1/2 entry was “t1/2 of 8 hrs”. In addition, the “Toxicity (in words)” value in data set [16] is “toxicity, lymphoid”. For the same compound, in data set [17], the dose limiting toxicity result is on record as “(human) 18 mg/Kg;”. Besides, the IC50 in data set [18] was 0.56 to 4.1 nM. The “toxic dose (LD50)” value in data set [19] (ip) was 6.4 mg/kg; in data set [19] (iv) it was 10 mg/kg.
`CCSC1SCC2C(=O)N(C)C3(CC3C)C(=O)OCC(NC(=O)c3nc4ccccc4cc3O)C(=O)NC(C)C(=O)N(C)C1C(=O)N(C)C1(CC1C)C(=O)OCC(NC(=O)c1nc3ccccc3cc1O)C(=O)NC(C)C(=O)N2C` (stereo not drawn) [SW-163E]: the IC50 is 0.3 nM in [3] (read-out: Activity (IC50)); 1.3 nM in data set [20]; 0.4 nM in [21] (read-out: Activity (IC50)); 0.2 nM in [22]; 1.6 nM in data set [15]. For the same compound, the “Toxicity (in words)” value in [16] is “low toxicity (mice”.
In the case of gemtuzumab ozogamicin, the “killing of CD33+ cells (in words)” value in [23] is “Kills CD33+ cells”. The “Toxicity (in words)” value in data set [16] was “mild toxicity”.
Consider `C/C(=C\c1csc(C)n1)[C@@H]1C[C@@H]2O[C@]2(C)CCC[C@H](C)[C@H](O)[C@@H](C)C(=O)C(C)(C)[C@@H](O)CC(=O)O1` [Epothione B], for which the “activity in cell culture (in words)” value in [1] is reported as “broad activity”. Also, the IC50 in data set [24] is 0.18 nM; in data set [25], 2.92 nM; in [26], 0.42 nM; in [27], 0.19 nM. The t1/2 (in vivo) is 2.5 h. Further, the “clinical responses (in words)” value in data set [28] is reported as “partial”.
Take `CCC1/C=C/C=C/CC(C)C(O)C(C)(O)C(=O)CC(O)C(C)C(O)C(C)C(O)C(C)/C=C/C(=O)OC2C(C)C(CC1)OC1(CCC(C)C(CC(C)O)O1)C2C` (stereo not drawn) [BE-56384]: the IC50 was 0.29 colon 26 ng/mL in data set [29]; 0.12 MKM-45 ng/mL in [30]; 0.1 P388 ng/mL in data set [3]; 34 DLD-1 ng/mL in data set [31]; 0.12 PC-13 ng/mL in data set [32].
With `NC[C@H]1[C@H]2CN3C(=O)c4cccn4[C@H]4NC(N)=NC43[C@H]2[C@@]2(N=C(N)N[C@@H]2O)[C@H]1Cl` (stereo partly drawn) [Palauamine], the IC50 is recorded as 0.2 A549 (lung) micrograms/mL in [8] (cell culture, A549); 0.1 P388 micrograms/mL in data set [3] (cell culture); 10 KB micrograms/mL in data set [21] (cell culture); 2 HT-29 (colon) micrograms/mL in [13]. In [33], the LD50 entry is recorded as “is 13 mg/Kg”.
As to `CC1(C)NC(=O)[C@H](CCCCCC(=O)[C@@H]2CO2)NC(=O)[C@H]2CCCN2C(=O)[C@H](Cc2ccccc2)NC1=O` [Chlamydocin] (cyclo([Aib]F[dP][Aoe])), the IC50 in data set [34] was 1.3 nM.
With `C=C1C[C@@H]2CCO[C@H]3[C@@H]4C[C@H]5CC[C@H](CC(=O)C[C@@H]6[C@@H](OC)[C@@H](C[C@H](O)CO)O[C@H]6C[C@H]6O[C@@H](CC[C@@H]1O2)C[C@@H](C)C6=C)O[C@@H]5[C@@H]1OCC[C@@H]3O[C@H]41` [Halichondrin B analogs], the “activity in animal models (in words)” value in data set [6] was “active (tumor”.
